Test results reported in patent publication US8124653B2, “Methods and compositions for the treatment of attention deficit hyperactivity disorder and hyperphenylalanemia” (The Board of Regents of The University of Texas System, priority 2004, dated 2012).
Several values for one entry are separate records, joined by “and”; a condition that tells them apart may be missing. Equal entries are not always repeated.

Key:
PKU afflicted mice = test: Levels of metabolites in mouse brain following BH4 and 6-methyl BH4 treatment, PKU mice; assay type: in vivo; details: for 3OMD level in brain / 5HT level in brain / DA level in brain / DOPAC level in brain / HIAA level in brain / HVA level in brain / MPHG level in brain: PKU mice, single dose IM 100 mg/kg, after 1 hr, one line per animal
Procedure: (§1) To comparatively investigate the CNS effects of BH4 and methyl BH4, we used mice both with and without PKU. A single dose of either compound was given IM, 100 mg/kg to PKU afflicted and normal mice, with control groups receiving buffer only. After 1 hr, a time sufficient to observe changes in brain chemistry, the mice were sacrificed, and brains were sent out for analysis of 3-O-methyldopa (“3OMD”), 5-hydroxytryptamine ([…]) (serotonin), dihydroxybenzoic acid (“DHBA”), dopamine (“DA”), dihydroxyphenylacetic acid (“DOPAC”), hydroxyindoleacetic acid (“HIAA”), homovanilic acid (“HVA”), and methoxyhydroxyphenylglycol (“MPHG”) levels.

patients with PKU = test: Oral BH4 loading in patients with PKU, blood Phe and tyrosine by tandem MS/MS (Example 2); assay type: in vivo, human
Procedure: This study included 15 males and 10 females with PKU. There were 13 subjects with “classical” PKU (based on blood Phe levels greater than 20 mg/dL) and 12 with “atypical” PKU (blood Phe 6.0-20 mg/dL). The mean age of the subjects was 16.6 years with a range from 6 months to 43 years. All subjects were on a restricted Phe diet, except four subjects with atypical PKU, who had discontinued diet treatment. […] Tetrahydrobiopterin (BH4) was obtained from Schircks Laboratories, Jena, Switzerland. The subjects were given BH4 10 mg/kg or 20 mg/kg by mouth after baseline blood Phe and tyrosine were drawn. Blood Phe and tyrosine were taken at 4, 8, and 24 hours and determined using tandem MS/MS (Neogen).

normal mice = test: Levels of metabolites in mouse brain following BH4 and 6-methyl BH4 treatment, normal mice; assay type: in vivo; details: Non PKU mice, single dose IM 100 mg/kg, after 1 hr; one line per animal
Procedure: as §1

PKU patients = test: Single oral BH4 dose in PKU patients, blood Phe and tyrosine response (Example 1); assay type: in vivo, human; details: single oral 10 mg/kg, responder = Phe reduction 25% or greater with tyrosine increase 25% or greater within 24 hours
Procedure: PKU patients were administered a single oral dose of 10 mg/kg BH4, and blood levels of both Phe and tyrosine were monitored at 0, 4, 8, 24 hours post-dose. In this regard, it should be noted that this is half the dose administered by previous investigators.

[1] = test system: release of neurotransmitter amines; details: U.S. Pat. No. 5,606,020 to Watanabe et al.; cited from earlier work

Row | Structure (SMILES) | 3OMD level in brain (PKU afflicted mice) | 5HT level in brain (PKU afflicted mice) | DA level in brain (PKU afflicted mice) | DOPAC level in brain (PKU afflicted mice) | HIAA level in brain (PKU afflicted mice) | HVA level in brain (PKU afflicted mice) | MPHG level in brain (PKU afflicted mice) | 3OMD level in brain (normal mice) | 5HT level in brain (normal mice) | DA level in brain (normal mice) | DOPAC level in brain (normal mice) | HIAA level in brain (normal mice) | HVA level in brain (normal mice) | MPHG level in brain (normal mice) | also measured
1 | C[C@H](O)[C@H](O)[C@H]1CNc2nc(N)[nH]c(=O)c2N1 [BH4, Tetrahydrobiopterin] | 0.48 nmol/g wet weight and 0.16 nmol/g wet weight and 0.09 nmol/g wet weight and 0.55 nmol/g wet weight and 95.1 nmol/l and 32.9 nmol/l and 18.2 nmol/l and 110.4 nmol/l | 0.16 nmol/g wet weight and 0.23 nmol/g wet weight and 0.15 nmol/g wet weight and 0.24 nmol/g wet weight and 31.5 nmol/l and 45.7 nmol/l and 30.4 nmol/l and 48.3 nmol/l | 6.28 nmol/g wet weight and 9.48 nmol/g wet weight and 6.91 nmol/g wet weight and 8.08 nmol/g wet weight and 1256.0 nmol/l and 1896.3 nmol/l and 1382.2 nmol/l and 1616.2 nmol/l | 0.40 nmol/g wet weight and 0.53 nmol/g wet weight and 0.51 nmol/g wet weight and 0.37 nmol/g wet weight and 80.9 nmol/l and 105.7 nmol/l and 101.0 nmol/l and 73.1 nmol/l | 0.91 nmol/g wet weight and 1.68 nmol/g wet weight and 0.94 nmol/g wet weight and 1.45 nmol/g wet weight and 181.1 nmol/l and 336.9 nmol/l and 188.0 nmol/l and 290.6 nmol/l | 0.80 nmol/g wet weight and 1.04 nmol/g wet weight and 0.77 nmol/g wet weight and 0.94 nmol/g wet weight and 160.6 nmol/l and 207.0 nmol/l and 153.6 nmol/l and 188.7 nmol/l | 0.18 nmol/g wet weight and 0.21 nmol/g wet weight and 0.26 nmol/g wet weight and 0.16 nmol/g wet weight and 35.2 nmol/l and 42.9 nmol/l and 51.6 nmol/l and 31.6 nmol/l | 0.58 nmol/g wet weight and 0.27 nmol/g wet weight and 0.60 nmol/g wet weight and 0.41 nmol/g wet weight and 115.6 nmol/l and 53.3 nmol/l and 119.7 nmol/l and 81.1 nmol/l | 1.27 nmol/g wet weight and 1.21 nmol/g wet weight and 1.16 nmol/g wet weight and 1.53 nmol/g wet weight and 253.5 nmol/l and 242.3 nmol/l and 231.2 nmol/l and 305.2 nmol/l | 9.06 nmol/g wet weight and 9.56 nmol/g wet weight and 9.63 nmol/g wet weight and 9.93 nmol/g wet weight and 1811.4 nmol/l and 1912.5 nmol/l and 1926.7 nmol/l and 1985.9 nmol/l | 0.68 nmol/g wet weight and 0.62 nmol/g wet weight and 0.72 nmol/g wet weight and 0.79 nmol/g wet weight and 136.6 nmol/l and 124.4 nmol/l and 143.4 nmol/l and 158.6 nmol/l | 3.49 nmol/g wet weight and 3.23 nmol/g wet weight and 3.19 nmol/g wet weight and 3.58 nmol/g wet weight and 697.5 nmol/l and 646.1 nmol/l and 638.7 nmol/l and 716.9 nmol/l | 1.08 nmol/g wet weight and 1.09 nmol/g wet weight and 1.22 nmol/g wet weight and 1.18 nmol/g wet weight and 216.9 nmol/l and 217.7 nmol/l and 243.0 nmol/l and 236.6 nmol/l | 0.36 nmol/g wet weight and 0.30 nmol/g wet weight and 0.40 nmol/g wet weight and 0.33 nmol/g wet weight and 72.5 nmol/l and 60.6 nmol/l and 80.2 nmol/l and 66.7 nmol/l | Number of classical PKU subjects who responded to BH4 (patients with PKU; 13 subjects with classical PKU (blood Phe greater than 20 mg/dL)): 6; Drop in blood Phe level (patients with PKU; non-responding patients with R261Q allele challenged again with 20 mg/kg BH4): 10%; Mean decline in blood Phe (patients with PKU; responders, after BH4 loading): 53.7%; Mean blood Phe level after BH4 loading (patients with PKU; responders, prior to BH4 12.2 mg/dL): 6.6 mg/dL; Mean blood Phe level after BH4 loading (patients with PKU; responders, prior to BH4 732 mmol/L, unit of the source corrected): 396 µM; Number of Responders (PKU patients; Atypical PKU, blood Phe 6-20 mg/dl, 9 subjects): 9; Number of Responders (PKU patients; Classic PKU, blood Phe 20-50 mg/dl, 6 subjects): 0
2 | CC1CNc2nc(N)[nH]c(=O)c2N1 (centres unmarked) [6-Me BH4, 6-methyl-tetrahydropterin] | 0.39 nmol/g wet weight and 0.26 nmol/g wet weight and 0.17 nmol/g wet weight and 0.47 nmol/g wet weight and 77.7 nmol/l and 51.9 nmol/l and 34.9 nmol/l and 94.1 nmol/l | 0.20 nmol/g wet weight and 0.15 nmol/g wet weight and 0.28 nmol/g wet weight and 0.24 nmol/g wet weight and 40.0 nmol/l and 30.0 nmol/l and 56.7 nmol/l and 47.6 nmol/l | 10.16 nmol/g wet weight and 7.14 nmol/g wet weight and 6.46 nmol/g wet weight and 7.27 nmol/g wet weight and 2031.2 nmol/l and 1427.4 nmol/l and 1292.6 nmol/l and 1454.4 nmol/l | 0.51 nmol/g wet weight and 0.40 nmol/g wet weight and 0.52 nmol/g wet weight and 0.48 nmol/g wet weight and 101.7 nmol/l and 80.6 nmol/l and 104.5 nmol/l and 95.6 nmol/l | 1.70 nmol/g wet weight and 1.03 nmol/g wet weight and 1.64 nmol/g wet weight and 1.41 nmol/g wet weight and 340.4 nmol/l and 205.6 nmol/l and 328.1 nmol/l and 282.2 nmol/l | 1.18 nmol/g wet weight and 0.94 nmol/g wet weight and 0.92 nmol/g wet weight and 0.91 nmol/g wet weight and 236.9 nmol/l and 187.2 nmol/l and 184.5 nmol/l and 182.1 nmol/l | 0.36 nmol/g wet weight and 0.26 nmol/g wet weight and 0.32 nmol/g wet weight and 0.18 nmol/g wet weight and 71.2 nmol/l and 52.1 nmol/l and 63.2 nmol/l and 36.3 nmol/l | 0.57 nmol/g wet weight and 0.29 nmol/g wet weight and 0.36 nmol/g wet weight and 0.44 nmol/g wet weight and 114.5 nmol/l and 87.7 nmol/l and 58.2 nmol/l and 71.7 nmol/l | 1.07 nmol/g wet weight and 1.31 nmol/g wet weight and 1.21 nmol/g wet weight and 1.11 nmol/g wet weight and 214.3 nmol/l and 222.6 nmol/l and 261.1 nmol/l and 242.3 nmol/l | 10.86 nmol/g wet weight and 10.26 nmol/g wet weight and 11.50 nmol/g wet weight and 10.56 nmol/g wet weight and 2172.4 nmol/l and 2112.1 nmol/l and 2051.2 nmol/l and 2300.5 nmol/l | 0.61 nmol/g wet weight and 0.65 nmol/g wet weight and 0.66 nmol/g wet weight and 0.59 nmol/g wet weight and 121.6 nmol/l and 118.9 nmol/l and 129.6 nmol/l and 132.5 nmol/l | 3.09 nmol/g wet weight and 3.56 nmol/g wet weight and 3.65 nmol/g wet weight and 3.22 nmol/g wet weight and 617.3 nmol/l and 643.9 nmol/l and 712.0 nmol/l and 730.5 nmol/l | 1.26 nmol/g wet weight and 0.99 nmol/g wet weight and 1.20 nmol/g wet weight and 1.28 nmol/g wet weight and 252.9 nmol/l and 256.9 nmol/l and 197.1 nmol/l and 240.6 nmol/l | 0.31 nmol/g wet weight and 0.26 nmol/g wet weight and 0.30 nmol/g wet weight and 0.29 nmol/g wet weight and 62.9 nmol/l and 58.9 nmol/l and 51.2 nmol/l and 59.7 nmol/l | Overall effect on CNS chemistry, compared with BH4 (PKU afflicted mice; PKU and normal mice, IM 100 mg/kg, 1 hr, summary of Tables 5 and 6): greater effect on CNS chemistry; Ability to traverse the blood brain barrier, as compared to BH4 (PKU afflicted mice; inferred from brain metabolite levels, PKU and normal mice): better ability to traverse the blood brain barrier
3 | C[C@H](O)[C@H](O)[C@H]1CNc2nc(N)[nH]c(=O)c2N1 [6R-BH4] |  |  |  |  |  |  |  |  |  |  |  |  |  |  | Release and liberation of neurotransmitter amines such as dopamine, norepinephrine and serotonin [1]: enhances the release and liberation of neurotransmitter amines
